# Laboratory results published in patent publication US12370230B2, “Hemp and PEA formulation and its use” (priority 2019, dated 2025).
# Assays:
# [1] = test system: formalin-evoked acute and persistent nociceptive behaviors; assay: Formalin test (acute nocifensive response; PFD7 hypersensitivity and paw edema); assay type: in vivo, mice
# Description: (§1) We used male CD-1 mice (9-10 weeks old; Charles River, Wilmington, MA, US) weighing 25-30 g upon arrival. They were randomly assigned to treatment groups and housed in ventilated plastic cages (4-5 per cage) in the animal facility of the University of California, Irvine. Animals were maintained in a pathogen-free environment (12-h light/dark cycle) under controlled temperature (20±2° C.) and humidity (55-60%) with food and water available ad libitum. Mice were allowed to acclimate for at least 7 days and experiments were conducted during the light phase of the light/dark cycle. All efforts were made to minimize the number of animals used and their discomfort. All procedures were approved by the Institutional Animal Care and Use Committee at the University of California, Irvine, and were carried out in strict accordance with the National Institutes of Health guidelines for the care and use of animals.
# (§2) HOE (code: VOHO-MGC) and PEA (batch No 20190604_03) were supplied by Metagenics Inc. The chemical composition of HOE is presented in Table A below. The extract was aliquoted upon arrival at our facility and kept at −80° C. until use. Before tests, aliquots were thawed at room temperature and the extract was diluted to the desired dose in a vehicle of 85% distilled water/15% Tween 80. Defrosted samples were discarded after use. HOE was subjected to an internal quality control to monitor its content of CBD and CBDA over time. HOE, PEA and their combinations were administered in volumes of 10 mL/kg by oral gavage.
# The formalin test was described in detail previously (e.g., see Dubuisson & Dennis, 1977). We injected formalin (1% v/v, 10 μL) or vehicle (saline, 10 μL) into the plantar surface of the right hind paw of male mice. Test compounds or vehicle (85% distilled water/15% Tween 80) were administered orally 1 h before formalin injection. Following injection, mice were immediately transferred to a transparent observation chamber where nocifensive behavior (time spent licking or biting the injected paw, number of shakings) was continuously recorded by a video camera for 60 min and then measured by trained observers blinded to experimental conditions. Behavioral tests and paw edema measurements were performed on post-formalin day (PFD) 7 in both the injected (ipsilateral) and contralateral paws.
# (§3) Mechanical sensitivity was assessed using a dynamic plantar aesthesiometer (Cat. No 37450, Ugo Basile, Italy). Mice were placed individually in transparent cages positioned on a wire mesh surface. After a 45-min habituation period, a mechanical stimulus was delivered to the plantar surface of the hind paws through the metal grid by an automated steel filament exerting an increasing force ranging from 0 to 5 grams over 10 s. The force at which the mouse withdrawn its paw (withdrawal threshold, in grams) was measured automatically. Thermal sensitivity was measured using a Hargreaves plantar test apparatus (San Diego Instruments, Inc, CA, USA). Mice were individually placed in small enclosures with a glass floor. After a 45-min habituation period, the plantar surface of the hind paws was exposed to a beam of radiant heat (infrared heat intensity: 3.0) through the glass floor. The cut-off time was set at 15 s. The time taken to withdraw the paw from heat stimulus (withdrawal latency, in seconds) was measured automatically. Each paw was tested 3 times with a 2-min interval between stimuli and the mean paw withdrawal threshold and latency were calculated. Paw thickness was measured in both ipsilateral and contralateral paws using a digital caliper (Cat. No 06-664-16, Fisher scientific, USA). Paw edema was quantified as the difference (paw thickness, in mm) between the ipsilateral paw thickness and the contralateral counterpart.
# Results are presented as mean S.E.M. of n experiments. ED50 values were determined by linear regression analysis of dose-response curves. […]
# [2] = test system: CCI-evoked mechanical allodynia and heat hyperalgesia; assay: Chronic constriction injury (CCI) of the sciatic nerve: mechanical allodynia and heat hyperalgesia; assay type: in vivo, mice
# Description: as §1, §2
# (§4) We elicited peripheral neuropathy in the left sciatic nerve of mice as described elsewhere (e.g., see Bennett & Xie, 1988). In brief, mice were anesthetized in 2-3% isoflurane in O2. Under aseptic conditions, the sciatic nerve was exposed at mid-thigh level through a small incision and loosely tied at 3 distinct sites (spaced at 1-mm interval) with 4-0 chromic catgut (Ethicon, USA). The wound was closed with a single muscle suture (Mersilk 5.0, Ethicon, USA) and glue to fasten the skin. Operated mice were returned to their home cages for recovery. Test compounds or vehicle were given by the oral route on day 7 after surgery (acute treatment) and then repeatedly once daily for 7 consecutive days (subchronic treatment). Behavioral tests were performed within 1 h of acute treatment or last subchronic treatment in both operated (ipsilateral) and contralateral paws. Mice were sacrificed by decapitation, the spinal cords were extruded by hydraulic pressure and processed for specific mRNA quantification in lumbar segments by real-time quantitative PCR.
# as §3, with “Paw edema was quantified as the difference (paw thickness, in mm) between the ipsilateral paw thickness and the contralateral counterpart.” left out
# IL-10 mRNA = assay: Real-time quantitative PCR in lumbar spinal cords of CCI mice, IL-10; assay type: in vivo; conditions: PEA 20 mg/kg alone, oral, lumbar spinal cord, vs vehicle
# Source text: as §4, with “Test compounds or vehicle were given by the oral route on day 7 after surgery (acute treatment) and then repeatedly once daily for 7 consecutive days (subchronic treatment). Behavioral tests were performed within 1 h of acute treatment or last subchronic treatment in both operated (ipsilateral) and contralateral paws.” left out
# We extracted total RNA from lumbar spinal cords (L3-L6) using TRIzol™ reagent (Thermo Fisher Scientific, Walthman, USA) and purified with the PureLink™ RNA Mini Kit (Invitrogen, Carlsbad, USA) as directed by the supplier. […] RNA concentration and purity were determined using the NanoDrop 2000/2000-c spectrophotometer (Thermo Fisher Scientific, Walthman, USA). cDNA was synthesized using 2 μg of total RNA as input for the High-Capacity cDNA RT Kit with RNase Inhibitor (Applied BioSystems, Foster City, USA) with a final reaction volume of 20 μL. […]
# [3] = PEA 300 mg/kg oral single dose, PFD7, vs vehicle
# [4] = PEA at dosages lower than 300 mg/kg oral, PFD7, P>0.05 vs vehicle
# [5] = PEA 100 or 300 mg/kg oral once daily for 7 consecutive days, day 14 after CCI
# [6] = single oral PEA administration, dose-response, day 7 after CCI, vs vehicle
structure (smiles),measurement,setting,value
"CCCCCCCCCCCCCCCC(=O)NCCO [PEA, palmitoylethanolamide]","alleviation of heat hyperalgesia, contralateral paw",[1]; [3],110%
same,"alleviation of heat hyperalgesia, ipsilateral paw",[1]; [3],93%
same,"attenuation of mechanical allodynia, contralateral paw",[1]; [3],112%
same,"attenuation of mechanical allodynia, ipsilateral paw",[1]; [3],91%
same,formalin-evoked nocifensive response,"[1]; PEA 10, 30, 100 and 300 mg/kg oral",dose-dependent suppression
same,formalin-evoked inflammatory response (paw thickness),"[1]; PEA 10, 30, 100 and 300 mg/kg oral, PFD7",dose-dependent suppression
same,effect on heat hyperalgesia,[1]; [4],no effect
same,effect on mechanical allodynia,[1]; [4],no effect
same,"effect on heat hyperalgesia, subchronic",[2]; [5],reversed
same,"effect on mechanical allodynia, subchronic",[2]; [5],reversed
same,"ED50, suppression of mechanical allodynia","[2]; single oral PEA administration, day 7 after CCI, 95% CI 18.7 to 26.0",22.2 mg/kg
same,"ED50, suppression of heat hyperalgesia","[2]; single oral PEA administration, day 7 after CCI, 95% CI 21.8 to 29.1",25.1 mg/kg
same,suppression of heat hyperalgesia (maximal),[2]; [6],≤ 109%
same,suppression of mechanical allodynia (maximal),[2]; [6],up to 85%
same,IL-10 mRNA levels,IL-10 mRNA,halved
